Measured values taken from US20250042918A1, “COMPOUNDS” (Fundación Del Sector Públlco Estatal Centro Nacional De …, priority 2021, published 2025).

What was measured:
Format in all cases: cell-based
[1] = tested on: BAD S112 phosphorylation in H1299 cells overexpressing PIM-1 (H1299Pim1); test: BAD S112 phosphorylation inhibition assay (in Cell ELISA); conditions: Homo sapiens, NCI-H1299, 4 hours, medium without FBS, read-out: BAD PH 1299PIM 1 ELIWO
Procedure: The efficacy of the compounds of the invention on the inhibition of BAD phosphorylation was measured by an in Cell ELISA.
Materials: H1299 cells overexpressing PIM-1 (H1299Pim1). DMSO Plates: 96-well-Polystyrene, Untreated, Round-Bottom plates from Costar (Cat #3797). Cell Plates: 96-Flat bottom biocoated with Poly-D-Lysin plates with lid from Becton Dickinson (Cat #354651). Cell Culture Medium: DMEM high glucose, 10% Fetal Bovine Serum, 2 mM L-Glutamine, P/S. Antibodies: phospho BAD S112 antibody from Cell Signaling (cat. #9291S), anti-rabbit conjugated with peroxidase from Amersham (cat. #3619). Reagent: SuperSignal ELISA femto from Pierce (cat. #1001110).
Procedure: Cells were seeded in 15000 cells per 200 μl per well into 96-well plates and incubated for 16 h at 37° C., 5% CO2. On day two, nine serial 1:2 compound dilutions were made in DMSO in a 96-well plate. The compounds were added to duplicate wells in 96-well cell plates using a FX BECKMAN robot (Beckman Coulter) and were incubated at 37° C. under CO2 atmosphere in medium without fetal bovine serum (FBS). After 4 hours, relative levels of BAD S112 phosphorylation were measured in Cell ELISA using SuperSignal ELISA Femto substrate (Pierce) and read on VICTOR (Perkin Elmer). EC50 values were calculated using ActivityBase from IDBS.

[2] = tested on: MV-4-11; test: In vitro potency against leukemia cell lines (CellTiter Glo); conditions: Homo sapiens, MV4-11; 72 hours; read-out: absolute IC50 MV-4-11
Procedure: (§1) To prepare the complete medium FBS and appropriate additives were added according to the information sheet provided by the vendor and mixed gently. The cell name and complete medium and passage number marked on the flask were checked, and the culture medium removed and discarded using a vacuum pump. […] 3.0 ml of Trypsin-EDTA solution was added to the flask and the cells observed under an inverted microscope until cell layer is dispersed. 8.0 ml of complete growth medium was added and the cells aspirated by gently pipetting. The cell suspension was transferred to a centrifuge tube and centrifuged at 800-1000 rpm for 3-5 minutes. The supernatant was discarded using a vacuum pump, and an appropriate volume of complete medium added. The cell pellet was suspended by gently pipetting, and the cell numbers counted with Vi-cell XR and the cells adjusted to appropriate density. 100 μL of cell suspension to 96-well opaque-walled clear bottom plates was added according to the planned plate layout and the plates placed in the CO2 incubator overnight.
(§2) c. […] Meanwhile the day 0 plate was measured by Cell TiterGlo as listed below.
(§3) d. Cells were incubated with the compounds for 72 h at 5% CO2, 37° C.
(§4) The plate and its contents were equilibrated to room temperature for approximately 30 minutes, after which 100 μL of CellTiter-Glo reagent was added to the assay plate by Multidrop Combi instrument and the contents mixed for 10 minutes on an orbital shaker to induce cell lysis. The plate was allowed to incubate at room temperature for 10 minutes to stabilize luminescent signal and the clear bottom pasted with white back seal and the luminescence recorded with Enspire with the settings: Luminescence, measurement time 0.1 ms.
(§5) In all cases, the incubation time was 72 hours and the cell lines were grown as a suspension. The seeding density was […] in a 96 well plate.

[3] = tested on: Kasumi-3; test: as above; conditions: 72 hours, read-out: absolute IC50 Kasumi-3
Procedure: as §1, §2, §3, §4, §5

[4] = tested on: HL-60; test: as above; conditions: Homo sapiens, 72 hours, read-out: absolute IC50 HL-60
Procedure: as §1, §2, §3, §4, §5

[5] = tested on: OCI-M1; test: as above; conditions: 72 hours, read-out: absolute IC50 OCI-M1
Procedure: as §1, §2, §3, §4, §5

[6] = tested on: KG-1; test: as above; conditions: Homo sapiens, 72 hours, read-out: absolute IC50 KG-1
Procedure: as §1, §2, §3, §4, §5

[7] = tested on: Jeko-1; test: as above; conditions: Homo sapiens, 72 hours, read-out: absolute IC50 JeKo-1
Procedure: as §1, §2, §3, §4, §5

[8] = tested on: Molm-13; test: as above; conditions: Homo sapiens, 72 hours, read-out: absolute IC50 Molm-13
Procedure: as §1, §2, §3, §4, §5

[9] = tested on: HCC38; test: In vitro potency against breast cancer cell lines (CellTiter Glo); conditions: Homo sapiens, HCC38, 72 h; read-out: absolute IC50 HCC38
Procedure: as §1, §2, §3
(§6) The CellTiter-Glo buffer was thawed and equilibrated to room temperature prior to use. The lyophilized CellTiter-Glo substrate was equilibrated to room temperature prior to use. The appropriate volume of CellTiter-Glo buffer was transferred into the amber bottle containing CellTiter-Glo substrate to reconstitute the lyophilized enzyme/substrate mixture, thereby forming the CellTiter-Glo reagent. Mixing was carried out by gently vortexing, swirling or by inverting the contents to obtain a homogeneous solution, the CellTiter-Glo substrate going into solution easily in less than one minute.
as §4

[10] = tested on: T-47D; test: as above; conditions: Homo sapiens, T47D, 72 h; read-out: absolute IC50 T-47D
Procedure: as §1, §2, §3, §6, §4

[11] = tested on: HCC1954; test: as above; conditions: Homo sapiens, HCC1954, 72 h; read-out: absolute IC50 HCC1954
Procedure: as §1, §2, §3, §6, §4

[12] = tested on: HCC1143; test: as above; conditions: Homo sapiens, HCC1143, 72 h; read-out: absolute IC50 HCC1143
Procedure: as §1, §2, §3, §6, §4

[13] = tested on: MDA-MB-361; test: as above; conditions: Homo sapiens, MDA-MB-361, 72 h; read-out: absolute IC50 MDA-MB-361
Procedure: as §1, §2, §3, §6, §4

[14] = tested on: BT-474; test: as above; conditions: Homo sapiens, BT-474, 72 h; read-out: absolute IC50 BT-474
Procedure: as §1, §2, §3, §6, §4

EC50 [1]: 0.0083 µM
IC50 [2]: 0.907 µM
IC50 [3]: 0.232 µM
IC50 [4]: 8.75 µM
IC50 [5]: > 10 µM
IC50 [6]: 0.715 µM
IC50 [7]: 6.54 µM
IC50 [8]: 9.34 µM
IC50 [9]: 5.56 µM
IC50 [10]: 6.19 µM
IC50 [11]: 8.04 µM
IC50 [12]: 5.56 µM
IC50 [13]: 9 µM
IC50 [14]: 7.77 µM
Compound: CN1CCOc2c1c(N[C@H]1CC[C@@](C)(O)CC1)nn1c(-c3cccc(OC(F)(F)F)c3)nnc21 [Example 1, 1-Methyl-4-[6-methyl-3-(3-trifluoromethoxy-phenyl)-7,8-dihydro-6H-9-oxa-1,2,3a,4,6-pentaaza-cyclopenta[a]naphthalen-5-ylamino]-cyclohexanol]
